Results taken from patent US9096624B2 (OSI Pharmaceuticals, LLC, priority 2009, dated 2015).
Counter-ions that a name gives are not always drawn.

Target: FAK (Homo sapiens, UniProt Q05397)
Assay: biochemical

Sequence of FAK (Q05397 whole entry): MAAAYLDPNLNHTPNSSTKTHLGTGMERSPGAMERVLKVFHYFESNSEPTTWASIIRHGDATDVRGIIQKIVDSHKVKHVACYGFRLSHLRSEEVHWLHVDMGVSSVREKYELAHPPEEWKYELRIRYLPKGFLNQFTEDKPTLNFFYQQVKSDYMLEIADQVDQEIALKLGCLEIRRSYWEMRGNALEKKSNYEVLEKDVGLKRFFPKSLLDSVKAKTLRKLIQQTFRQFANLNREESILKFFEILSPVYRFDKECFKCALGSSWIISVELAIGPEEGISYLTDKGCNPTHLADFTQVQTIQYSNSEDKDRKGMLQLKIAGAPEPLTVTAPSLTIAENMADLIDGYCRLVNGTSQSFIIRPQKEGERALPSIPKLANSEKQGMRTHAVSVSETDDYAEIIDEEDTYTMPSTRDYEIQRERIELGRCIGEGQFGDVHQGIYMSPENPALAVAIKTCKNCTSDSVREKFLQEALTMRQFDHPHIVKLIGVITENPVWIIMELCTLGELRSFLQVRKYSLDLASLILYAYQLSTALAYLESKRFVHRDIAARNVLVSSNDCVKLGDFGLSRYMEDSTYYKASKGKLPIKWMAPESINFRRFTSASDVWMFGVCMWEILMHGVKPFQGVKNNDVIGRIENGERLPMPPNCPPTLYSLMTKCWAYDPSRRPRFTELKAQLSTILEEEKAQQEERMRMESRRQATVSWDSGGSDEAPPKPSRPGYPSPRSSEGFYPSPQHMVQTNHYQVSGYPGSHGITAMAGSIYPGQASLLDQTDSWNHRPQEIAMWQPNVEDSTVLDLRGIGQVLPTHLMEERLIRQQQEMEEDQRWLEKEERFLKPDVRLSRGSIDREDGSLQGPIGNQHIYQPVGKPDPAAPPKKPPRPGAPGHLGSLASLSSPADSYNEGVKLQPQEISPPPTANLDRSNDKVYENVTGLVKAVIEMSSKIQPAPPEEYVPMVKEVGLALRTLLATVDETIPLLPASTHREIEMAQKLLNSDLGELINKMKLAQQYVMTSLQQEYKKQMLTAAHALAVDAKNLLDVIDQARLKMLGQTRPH

Compound	IC50 [nM]
CCOP(=O)(Cc1ccc(Nc2ncc(C(F)(F)F)c(Nc3ccc(-c4cnn(CC(C)C)c4)cc3C(=O)NC)n2)cc1)OCC [Example 134, Diethyl (4-{[4-({2-(methylcarbamoyl)-4-[1-(2-methylpropyl)-1H-pyrazol-4-yl]phenyl}amino)-5-(trifluoromethyl)pyrimidin-2-yl]amino}benzyl)phosphonate]	< 1000
CCOP(=O)(Cc1ccc(Nc2ncc(C(F)(F)F)c(Nc3cccc4c3C(=O)N(O)C4)n2)c(OC)c1)OCC [Example 186, Diethyl [4-({4-[(2-hydroxy-3-oxo-2,3-dihydro-1H-isoindol-4-yl)amino]-5-(trifluoromethyl)pyrimidin-2-yl}amino)-3-methoxybenzyl]phosphonate trifluoroacetate]	< 1000
CCOP(=O)(Cc1ccc(Nc2ncc(C(F)(F)F)c(Nc3ccc(-c4cnn(C5CC(O)C5)c4)cc3C(=O)NC)n2)cc1)OCC (stereo not drawn) [Example 136, Diethyl (4-{[4-({4-[1-(3-hydroxycyclobutyl)-1H-pyrazol-4-yl]-2-(methylcarbamoyl)phenyl}amino)-5-(trifluoromethyl)pyrimidin-2-yl]amino}benzyl)phosphonate]	< 1000
CCOP(=O)(Cc1ccc(Nc2ncc(C(F)(F)F)c(Nc3ccc(N4CC(O)C4)c4c3C(=O)N(C)C4)n2)cc1)OCC [Example 227, Diethyl (4-{[4-{[7-(3-hydroxyazetidin-1-yl)-2-methyl-3-oxo-2,3-dihydro-1H-isoindol-4-yl]amino}-5-(trifluoromethyl)pyrimidin-2-yl]amino}benzyl)phosphonate]	< 1000
CCOP(=O)(Cc1ccc(Nc2ncc(C(F)(F)F)c(Nc3ccc(-c4nn[nH]n4)c4c3C(=O)N(C)C4)n2)cc1)OCC [Example 181, Diethyl (4-{[4-{[2-methyl-3-oxo-7-(2H-tetrazol-5-yl)-2,3-dihydro-1H-isoindol-4-yl]amino}-5-(trifluoromethyl)pyrimidin-2-yl]amino}benzyl)phosphonate]	< 1000
CCOP(=O)(Cc1ccc(Nc2ncc(C(F)(F)F)c(Nc3ccc(-c4cnn(CC(C)(C)O)c4)cc3C(=O)NC)n2)cc1)OCC [Example 127]	< 1000
CCOP(=O)(Cc1ccc(Nc2ncc(C(F)(F)F)c(Nc3ccc(N4CCN(CC(=O)OC(C)(C)C)CC4)c4c3C(=O)N(C)C4)n2)cc1)OCC [Example 225, tert-Butyl [4-(7-{[2-({4-[(diethoxyphosphoryl)methyl]phenyl}amino)-5-(trifluoromethyl)pyrimidin-4-yl]amino}-2-methyl-1-oxo-2,3-dihydro-1H-isoindol-4-yl)piperazin-1-yl]acetate]	< 1000
CCOP(=O)(Cc1ccc(Nc2ncc(C(F)(F)F)c(Nc3ccc(C(=O)OC)c4c3C(=O)N(C)C4)n2)cc1)OCC [Example 118, Methyl 7-{[2-({4-[(diethoxyphosphoryl)methyl]phenyl}amino)-5-(trifluoromethyl)pyrimidin-4-yl]amino}-2-methyl-1-oxo-2,3-dihydro-1H-isoindole-4-carboxylate]	< 1000
CCOP(=O)(O)Cc1ccc(Nc2ncc(C(F)(F)F)c(Nc3cccc4c3C(=O)N(C)C4)n2)c(OC)c1 [Example 120, Ethyl hydrogen [3-methoxy-4-({4-[(2-methyl-3-oxo-2,3-dihydro-1H-isoindol-4-yl)amino]-5-(trifluoromethyl)pyrimidin-2-yl}amino)benzyl]phosphonate]	< 1000
CCOc1ccc(Nc2nc(Nc3ccc(CP(=O)(OCC)OCC)cc3OC)ncc2C(F)(F)F)c2c1CN(C)C2=O [Example 210, Diethyl [4-({4-[(7-ethoxy-2-methyl-3-oxo-2,3-dihydro-1H-isoindol-4-yl)amino]-5-(trifluoromethyl)pyrimidin-2-yl}amino)-3-methoxybenzyl]phosphonate]	< 1000
CCOP(=O)(Cc1ccc(Nc2ncc(C(F)(F)F)c(Nc3ccccc3C(=O)N(C)C)n2)c(OC)c1)OCC [Example 112, Diethyl (4-{[4-{[2-(dimethylcarbamoyl)phenyl]amino}-5-(trifluoromethyl)pyrimidin-2-yl]amino}-3-methoxybenzyl)phosphonate]	< 1000
CCOP(=O)(Cc1ccc(Nc2ncc(C(F)(F)F)c(Nc3ccccc3C(=O)NC)n2)c(Br)c1)OCC [Example 108, Diethyl (3-bromo-4-{[4-{[2-(methylcarbamoyl)phenyl]amino}-5-(trifluoromethyl)pyrimidin-2-yl]amino}benzyl) phosphonate]	< 1000
CCNC(=O)c1ccccc1Nc1nc(Nc2ccc(CP(=O)(OCC)OCC)cc2)ncc1C(F)(F)F [Example 152, Diethyl (4-{[4-{[2-(ethylcarbamoyl)phenyl]amino}-5-(trifluoromethyl)pyrimidin-2-yl]amino}benzyl)phosphonate]	< 1000
CCOP(=O)(Cc1ccc(Nc2ncc(C(F)(F)F)c(Nc3ccc(C#N)cc3C(=O)NC)n2)cc1)OCC [Example 150, Diethyl (4-{[4-{[4-cyano-2-(methylcarbamoyl)phenyl]amino}-5-(trifluoromethyl)pyrimidin-2-yl]amino}benzyl)phosphonate]	< 1000
CCOP(=O)(Cc1ccc(Nc2ncc(C(F)(F)F)c(Nc3ccc(Br)c4ccn(C)c(=O)c34)n2)cc1)OCC [Example 123, Diethyl [4-({4-[(5-bromo-2-methyl-1-oxo-1,2-dihydroisoquinolin-8-yl)amino]-5-(trifluoromethyl)pyrimidin-2-yl}amino)benzyl]phosphonate]	< 1000
CCOP(=O)(O)C1CCC(c2ccc(Nc3nc(Nc4ccccc4OC)ncc3C(F)(F)F)c3c2CN(C)C3=O)CC1 (mixture of isomers) [Example 255, Ethyl hydrogen {4-[7-({2-[(2-methoxyphenyl)amino]-5-(trifluoromethyl)pyrimidin-4-yl}amino)-2-methyl-1-oxo-2,3-dihydro-1H-isoindol-4-yl]cyclohexyl}phosphonate trifluoroacetate]	< 1000
CCOP(=O)(Cc1ccc(Nc2ncc(C(F)(F)F)c(Nc3ccccc3C(=O)N3CCN(C)CC3)n2)cc1)OCC [Example 177, Diethyl (4-{[4-({2-[(4-methylpiperazin-1-yl)carbonyl]phenyl}amino)-5-(trifluoromethyl)pyrimidin-2-yl]amino}benzyl)phosphonate]	< 1000
CCOP(=O)(Cc1ccc(Nc2ncc(C(F)(F)F)c(Nc3ccc(C#N)c4c3C(=O)N(C)C4)n2)cc1)OCC [Example 161, Diethyl [4-({4-[(7-cyano-2-methyl-3-oxo-2,3-dihydro-1H-isoindol-4-yl)amino]-5-(trifluoromethyl)pyrimidin-2-yl}amino)benzyl]phosphonate]	< 1000
CCOP(=O)(Cc1ccc(Nc2ncc(C(F)(F)F)c(Nc3ccc(Br)cc3C(=O)NC)n2)cc1)OCC [Example 106, Diethyl (4-{[4-{[4-bromo-2-(methylcarbamoyl)phenyl]amino}-5-(trifluoromethyl)pyrimidin-2-yl]amino}benzyl)phosphonate]	< 1000
CCOP(=O)(Cc1ccc(Nc2ncc(C(F)(F)F)c(Nc3ccc([C@H]4CC[C@H](O)CC4)c4c3C(=O)N(C)C4)n2)c(OC)c1)OCC [Example 93, Diethyl (4-{[4-{[7-(trans-4-hydroxycyclohexyl)-2-methyl-3-oxo-2,3-dihydro-1H-isoindol-4-yl]amino}-5-(trifluoromethyl)pyrimidin-2-yl]amino}-3-methoxybenzyl) phosphonate hydrochloride]	< 1000
CCOP(=O)(O)Cc1ccc(Nc2ncc(C(F)(F)F)c(Nc3ccc(N4CCN(C)CC4)c4c3C(=O)N(C)C4)n2)cc1 [Example 249, Ethyl hydrogen (4-{[4-{[2-methyl-7-(4-methylpiperazin-1-yl)-3-oxo-2,3-dihydro-1H-isoindol-4-yl]amino}-5-(trifluoromethyl)pyrimidin-2-yl]amino}benzyl) phosphonate]	< 1000
CCOP(=O)(Cc1ccc(Nc2ncc(C(F)(F)F)c(Nc3ccc(N4CCN(CC(=O)OC(C)(C)C)CC4)c4c3C(=O)N(C)C4)n2)c(OC)c1)OCC [Example 226, tert-Butyl [4-(7-{[2-({4-[(diethoxyphosphoryl)methyl]-2-methoxyphenyl}amino)-5-(trifluoromethyl)pyrimidin-4-yl]amino}-2-methyl-1-oxo-2,3-dihydro-1H-isoindol-4-yl)piperazin-1-yl]acetate]	< 1000
CCCn1cc(-c2ccc(Nc3nc(Nc4ccc(CP(=O)(OCC)OCC)cc4)ncc3C(F)(F)F)c(C(=O)NC)c2)cn1 [Example 126, Diethyl (4-{[4-{[2-(methylcarbamoyl)-4-(1-propyl-1H-pyrazol-4-yl)phenyl]amino}-5-(trifluoromethyl)pyrimidin-2-yl]amino}benzyl)phosphonate]	< 1000
CCOP(=O)(Cc1ccc(Nc2ncc(C(F)(F)F)c(Nc3cccc4c3C(=O)N(OC)C4)n2)c(OC)c1)OCC [Example 187, Diethyl [3-methoxy-4-({4-[(2-methoxy-3-oxo-2,3-dihydro-1H-isoindol-4-yl)amino]-5-(trifluoromethyl)pyrimidin-2-yl}amino)benzyl]phosphonate trifluoroacetate]	< 1000
CCOP(=O)(Cc1ccc(Nc2ncc(C(F)(F)F)c(Nc3ccc(OC)c4c3C(=O)N(C)C4)n2)cc1)OCC [Example 205, Diethyl [4-({4-[(7-methoxy-2-methyl-3-oxo-2,3-dihydro-1H-isoindol-4-yl)amino]-5-(trifluoromethyl)pyrimidin-2-yl}amino)benzyl]phosphonate]	< 1000
CCOP(=O)(Cc1ccc(Nc2ncc(C(F)(F)F)c(Nc3ccc(N4CCN(C)CC4)c4c3C(=O)N(C)C4)n2)c(OC)c1)OCC [Example 224, Diethyl (3-methoxy-4-{[4-{[2-methyl-7-(4-methylpiperazin-1-yl)-3-oxo-2,3-dihydro-1H-isoindol-4-yl]amino}-5-(trifluoromethyl)pyrimidin-2-yl]amino}benzyl)phosphonate]	< 1000
CCOP(=O)(Cc1ccc(Nc2ncc(C(F)(F)F)c(Nc3ccc(C4=CCN(C)CC4)c4c3C(=O)N(C)C4)n2)cc1)OCC [Example 248, Diethyl (4-{[4-{[2-methyl-7-(1-methyl-1,2,3,6-tetrahydropyridin-4-yl)-3-oxo-2,3-dihydro-1H-isoindol-4-yl]amino}-5-(trifluoromethyl)pyrimidin-2-yl]amino}benzyl)phosphonate]	< 1000
